From patent US20160045463A1, “USE OF METALLOPROTEASE INHIBITORS IN THE TREATMENT OF POLYCYSTIC LIVER DISEASES” (UNIVERSIDAD DE SALAMANCA, priority 2012, published 2016)

How the values were obtained:
[1] = test system: polycystic human cholangiocytes; assay: MMP mRNA expression by quantitative PCR in the presence of IL-6, IL-8 or 17β-estradiol; format: cell-based; details: for expression of MMP-2 (mRNA): FIG. 10; for expression of MMP-3 (mRNA): FIG. 11; for expression of MMP-7 (mRNA): FIG. 12; for expression of MMP-10 (mRNA): FIG. 13; for expression of MMP-11 (mRNA): FIG. 14; for expression of MMP-13 (mRNA): FIG. 15; for expression of MMP-15 (mRNA): FIG. 16; for expression of MMP-17 (mRNA): FIG. 17; for expression of MMP-27 (mRNA): FIG. 18
Protocol: (§1) To determine if the metalloproteolytic hyperactivity of polycystic human cholangiocytes is associated with changes in the pattern of expression of MMPs and their natural inhibitors, TIMPs, at the level of mRNA, this was analysed by quantitative PCR (i.e. qPCR) using the cDNA previously obtained as explained in Example 1, the gene expression of a total of 22 genes, including those containing the members of the metalloprotease family: MMP-1, MMP-2, MMP-3, MMP-7, MMP-8, MMP-9, MMP-10, MMP-11, MMP-13, MMP-14, MMP-15, MMP-16, MMP-17, MMP-18, MMP-24, MMP-25, MMP-26, MMP-27 and their natural inhibitors: TIMP-1, TIMP-2, TIMP-3, TIMP-4. Briefly, 4 μl of the cDNA were taken and 1.8 μl of a 10 μM solution of each primer (final concentration 0.9 μM) and 10 μl of FastSYBR® Green (Applied Biosystems) were added, adding sterile water (Braun) to reach a final volume of 20 μl. The amplification reactions were performed in a StepOne Plus (Applied Biosystems) thermo cycler following the standard protocol conditions for FastSYBR Green®.
(§2) The relative estimate of the mRNA levels of the genes of Table 2 were calculated from the PCR progression curve (fluorescence vs. cycle), where the cycle threshold or Ct was determined from when the fluorescence signal begins to increase exponentially. Thus to calculate the difference of relative expression of the normal and polycystic human cholangiocytes, the data obtained were analysed following the modified method of Livak and Schmittgen (Livak K J, et al. Methods 2001; 25:402), according to the following equation:
(§3) Relative values=1.8^(polycystic or normal cholangiocyte GAPDH−polycystic or normal cholangiocyte GEN)
(§4) Where the superscripts “GAPDH polycystic or normal cholangiocytes” and “Gene polycystic or normal cholangiocytes” correspond to the Ct for GAPDH and for each studied gene. The value of 1.8 (in place of 2) was used because it is assumed that the real efficiency of each amplification cycle is around 80% instead of 100%.
(§5) To analyse the effect of various stimuli on the metalloproteolytic activity of normal and polycystic human cholangiocytes cultures, a protocol similar to that described before in Example 2 was followed, but in this case the incubation of the cells was with quiescent medium (i.e. DMEM/F12, […]) in the presence of the corresponding stimulus (Table 3). Next, the same procedure as described for the analysis of basal metalloproteolytic activity was followed as described in Example 2.
(§6) Taking into account the increase in metalloproteolytic activity induced by interleukins 6 and 8 and also the oestrogen 17β-estradiol in human cholangiocytes in culture, this was further investigated to determine if the increase in activity was correlated with an increase in gene expression at the level of mRNA of the various MMPs.

[2] = test system: normal human cholangiocytes; assay: as above; format: cell-based; details: for expression of MMP-2 (mRNA): FIG. 10; for expression of MMP-3 (mRNA): FIG. 11; for expression of MMP-7 (mRNA): FIG. 12; for expression of MMP-10 (mRNA): FIG. 13; for expression of MMP-11 (mRNA): FIG. 14; for expression of MMP-13 (mRNA): FIG. 15; for expression of MMP-15 (mRNA): FIG. 16; for expression of MMP-17 (mRNA): FIG. 17; for expression of MMP-27 (mRNA): FIG. 18
Protocol: as §1, §2, §3, §4, §5, §6

[3] = test system: polycystic human cholangiocytes; assay: Metalloproteolytic activity of culture supernatants, ES001 fluorogenic peptide cleavage; format: cell-based; details: for metalloproteolytic activity in presence of stimulus: polycystic cholangiocytes vs basal, Table 3 final concentration: IL-6, IL-8 50 ng/ml, 17β-estradiol 1 nM/ml, VEGF, EGF, ENA-78, GRO-α 10 ng/ml, HGF 20 ng/ml, FIG. 9
Protocol: (§7) Metalloproteolytic or metalloprotease activity was measured in supernatants of cultures of normal human cholangiocytes and polycystic human cholangiocytes by an assay based on the cleavage of the ES001 fluorogenic synthetic peptide (R&D Systems Minneapolis, Minn., USA) that emits fluorescence proportional to metalloproteolytic activity. The substrate Mca-Pro-Leu-Gly-Leu-Dpa-Ala-Arg-NH2 [Mca: (7-Methoxycoumarin-4-yl)acetyl, Dpa: N-3-(2,4-Dinitrophenyl)-L-2,3-diaminopropionyl] (Knight C G, et al. FEBS Letters 1992; 296:263) is lysed between glycine and leucine by the action of the MMPs, especially MMP-1 (collagenase 1), MMP-2 (gelatinase A), MMP-7 (matrilysin), MMP-8 (collagenase 2), MMP-9 (gelatinase B), MMP-12 (macrophage elastase), MMP-13 (collagenase 3), MMP-14 (MT1-MMP), MMP-15 (MT2-MMP) and MMP-16 (MT3-MMP).
(§8) The basal metalloproteolytic activity of normal human cholangiocyte and polycystic human cholangiocytes cultures was determined by trypsinising the contents of 250 ml flasks and counting the number of cells in an inverted optical microscope using a Neubauer camera and a ½ dilution of the cell solution with trypan blue (Sigma). Next, 300,000 cells were seeded in each well of a 6-well plate and incubated with enriched DMEM/F-12 medium for 24 hours. After this time, the cells were washed with PBS and the culture medium changed for 2 ml of quiescent medium (DMEM/F-12, 1% FBS and 1% P/S) and incubated for 6 hours at 37° C./5% CO2. The supernatant was collected from each well and centrifuged at 4° C. for 10 minutes at 1,500 rpm to remove the dead cells present in the supernatant. The supernatant was concentrated 50 times using a 15 kDa (Millipore) Amicon Ultra concentrator. Next the concentrated supernatant was incubated for 2 hours at 37° C. with the ES001 fluorogenic peptide at a final concentration of 10 μM. Also, GM6001 (a global MMP inhibitor) and aprotinin (a global inhibitor of serine proteases) (both from Sigma-Aldrich) were used as controls of the specificity of the analysis of MMP activity in the assay. Recombinant MMP-10 (kindly provided by Dr. José Antonio Rodriguez Garcia, Laboratorio de Ateroesclerosis e Inflamación del CIMA, Universidad de Navarra) was used as a positive control and DMEM/F-12 medium without serum was used as the negative control. The fluorescence determination was kinetically measured in a Spectra MAX GeminiXS (Molecular Devices Sunnyvale, Calif., USA) spectrophotometer at excitation-emission wavelengths of 320-405 nm. The fluorescence intensity emitted by the culture medium was extracted from the metalloproteolytic activity values. The metalloproteolytic activity was calculated from the tangent to the curve of the fluorescence values using at least six different points over time for each type of cell and condition.
as §5
(§9) Taking into account that: i) basal activity of polycystic human cholangiocytes in culture is greater than that of normal human cholangiocytes and ii) that IL-6 and IL-8 increased the metalloproteolytic activity of normal and polycystic human cholangiocytes, the role of these two cytokines on metalloproteolytic hyperactivity of polycystic human cholangiocytes using antibodies against the receptors of IL-6 (IL6R) and/or IL-8 (CXCR1) was investigated. […]

[4] = test system: normal human cholangiocytes; assay: as above; format: cell-based; details: for metalloproteolytic activity in presence of stimulus: normal cholangiocytes vs basal, Table 3 final concentration: IL-6, IL-8 50 ng/ml, 17β-estradiol 1 nM/ml, VEGF, EGF, ENA-78, GRO-α 10 ng/ml, HGF 20 ng/ml, FIG. 9
Protocol: as §7, §8, §5, §9

recombinant MMP-10 = recombinant MMP-10 (Homo sapiens, UniProt P09238); assay: ES001 fluorogenic peptide assay with recombinant MMP-10 as positive control; format: biochemical; details: FIG. 2
Chain of recombinant MMP-10 (P09238 99-476, species assumed): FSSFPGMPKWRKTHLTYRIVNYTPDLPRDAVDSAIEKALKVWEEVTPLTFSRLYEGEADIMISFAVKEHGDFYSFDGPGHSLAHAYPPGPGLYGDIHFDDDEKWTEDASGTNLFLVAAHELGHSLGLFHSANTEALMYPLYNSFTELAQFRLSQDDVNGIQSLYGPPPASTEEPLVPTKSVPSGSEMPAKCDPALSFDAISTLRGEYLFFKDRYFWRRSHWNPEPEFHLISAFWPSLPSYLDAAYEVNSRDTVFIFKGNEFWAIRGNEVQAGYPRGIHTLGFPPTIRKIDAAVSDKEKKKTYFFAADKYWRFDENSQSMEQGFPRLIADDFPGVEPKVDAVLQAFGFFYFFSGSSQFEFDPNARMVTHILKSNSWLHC
Protocol: Metalloproteolytic or metalloprotease activity was measured in supernatants of cultures of normal human cholangiocytes and polycystic human cholangiocytes by an assay based on the cleavage of the ES001 fluorogenic synthetic peptide (R&D Systems Minneapolis, Minn., USA) that emits fluorescence proportional to metalloproteolytic activity. The substrate Mca-Pro-Leu-Gly-Leu-Dpa-Ala-Arg-NH2 [Mca: (7-Methoxycoumarin-4-yl)acetyl, Dpa: N-3-(2,4-Dinitrophenyl)-L-2,3-diaminopropionyl] […]
The basal metalloproteolytic activity of normal human cholangiocyte and polycystic human cholangiocytes cultures was determined by trypsinising the contents of 250 ml flasks and counting the number of cells in an inverted optical microscope using a Neubauer camera and a ½ dilution of the cell solution with trypan blue (Sigma). […] The fluorescence determination was kinetically measured in a Spectra MAX GeminiXS (Molecular Devices Sunnyvale, Calif., USA) spectrophotometer at excitation-emission wavelengths of 320-405 nm. The fluorescence intensity emitted by the culture medium was extracted from the metalloproteolytic activity values. The metalloproteolytic activity was calculated from the tangent to the curve of the fluorescence values using at least six different points over time for each type of cell and condition.

Row | Compound | expression of the other metalloproteinases 1, 8, 9, 14, 16, 18, 24 and 26 [1] | expression of MMP-2 (mRNA) [1] | expression of MMP-3 (mRNA) [1] | expression of MMP-7 (mRNA) [1] | expression of MMP-10 (mRNA) [1] | expression of MMP-11 (mRNA) [1] | expression of MMP-13 (mRNA) [1] | expression of MMP-15 (mRNA) [1] | expression of MMP-17 (mRNA) [1] | expression of MMP-27 (mRNA) [1] | expression of the other metalloproteinases 1, 8, 9, 14, 16, 18, 24 and 26 [2] | expression of MMP-2 (mRNA) [2] | expression of MMP-3 (mRNA) [2] | expression of MMP-7 (mRNA) [2] | expression of MMP-10 (mRNA) [2] | expression of MMP-11 (mRNA) [2] | expression of MMP-13 (mRNA) [2] | expression of MMP-15 (mRNA) [2] | metalloproteolytic activity in presence of stimulus [3] | metalloproteolytic activity in presence of stimulus [4] | also measured
1 | C[C@]12CC[C@@H]3c4ccc(O)cc4CC[C@H]3[C@@H]1CC[C@@H]2O [17β-estradiol] | did not show changes | increased | unchanged | unchanged | none of the 3 molecules caused changes | increased | increased | not altered | increased | unchanged | did not show changes | none of these modules induced changes | increased | None of the 3 molecules caused changes | increased | increased | increased | did not change | increase | increase | expression of MMP-17 (mRNA) [2]: did not change; expression of MMP-27 (mRNA) [2]: did not change
2 | CNC(=O)[C@H](Cc1c[nH]c2ccccc12)NC(=O)[C@@H](CC(=O)NO)CC(C)C [GM6001] |  |  |  |  |  |  |  |  |  |  |  |  |  |  |  |  |  |  |  |  | metalloproteolytic activity of the assay with recombinant MMP-10 (recombinant MMP-10): inhibited; metalloproteolytic activity ([3]; polycystic human cholangiocytes, presence of MMP inhibitor GM6001, p<0.001, FIG. 2): inhibited; metalloproteolytic activity ([4]; normal human cholangiocytes, presence of MMP inhibitor GM6001, p<0.001, FIG. 2): inhibited
3 | IL-8: cytokine interleukin 8, present in the cystic fluid | did not show changes | not changed | unchanged | unchanged | none of the 3 molecules caused changes | increased | did not change | not altered | increased | unchanged | did not show changes | none of these modules induced changes | unchanged | None of the 3 molecules caused changes | increased | increased | increased | did not change | increase | increase | expression of MMP-17 (mRNA) [2]: did not change; expression of MMP-27 (mRNA) [2]: did not change
4 | HGF: hepatocyte growth factor |  |  |  |  |  |  |  |  |  |  |  |  |  |  |  |  |  |  | did not induce any change | did not induce any change | 
5 | ENA-78: epithelial neutrophil-activating peptide 78 |  |  |  |  |  |  |  |  |  |  |  |  |  |  |  |  |  |  | did not induce any change | did not induce any change | 
